Source: patent US20230346760A1, “AGENTS TO PREVENT TISSUE DAMAGE FROM CLOSTRIDIUM DIFFICILE INFECTIONS BY INHIBITION OF THE GUT-DAMAGING BACTERIAL TOXINS TCDA AND TCDB” (ALBERT EINSTEIN COLLEGE OF MEDICINE, priority 2020, published 2023)
“Also recorded” adds a separate entry of the source. Like-named read-outs stand apart in the source and are kept apart here.

What was measured:
TcdB = TcdB (Clostridioides difficile, UniProt P18177); test: Kinetic inhibition of TcdB glucosyltransferase / UDP-glucose hydrolysis; type: biochemical, Clostridium difficile
[1] = tested on: TcdA induced apoptosis in HT-29 cells; type: cell-based
[2] = tested on: TcdB induced cell rounding of CHO-K1 cells; type: cell-based
TcdA [3] = biological target: T1, TcdA (Clostridioides difficile, UniProt P16154); type: biochemical, Clostridium difficile
[4] = tested on: Rac1 glucosylation by TcdA in IMR90 cells; type: cell-based
TcdB-GTD = biological target: T2, TcdB-GTD (Clostridioides difficile, UniProt P18177); type: binding, Clostridium difficile
T2 construct: (50 mM HEPES pH 7.5, 100 mM KCl, 4 mM MgCl2, 1 mM MnCl2) and 40 μM TcdB-GTD

[5] = tested on: TcdA induced rounding of CHO-K1 cells; type: cell-based
[6] = tested on: Rac1 glucosylation by TcdB in IMR90 cells; type: cell-based
TcdA [7] = biological target: T1, TcdA; test: biochemical; type: binding, Clostridium difficile

Chain of TcdB (P18177 1-543 limits assumed): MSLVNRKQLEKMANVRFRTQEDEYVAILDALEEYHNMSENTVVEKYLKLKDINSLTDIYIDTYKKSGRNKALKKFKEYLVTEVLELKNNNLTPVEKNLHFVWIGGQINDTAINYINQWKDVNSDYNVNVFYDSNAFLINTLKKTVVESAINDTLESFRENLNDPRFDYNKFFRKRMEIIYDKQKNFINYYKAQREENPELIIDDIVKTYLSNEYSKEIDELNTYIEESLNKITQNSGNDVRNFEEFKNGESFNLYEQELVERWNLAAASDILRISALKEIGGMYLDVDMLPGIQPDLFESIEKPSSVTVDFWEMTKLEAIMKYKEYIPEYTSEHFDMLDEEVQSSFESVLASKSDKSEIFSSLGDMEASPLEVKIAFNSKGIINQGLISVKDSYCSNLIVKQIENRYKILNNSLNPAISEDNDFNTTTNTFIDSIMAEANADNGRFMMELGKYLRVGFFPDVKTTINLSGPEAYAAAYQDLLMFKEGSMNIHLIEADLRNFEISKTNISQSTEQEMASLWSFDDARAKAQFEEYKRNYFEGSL
T2 sequence (P18177 2-543 limits assumed): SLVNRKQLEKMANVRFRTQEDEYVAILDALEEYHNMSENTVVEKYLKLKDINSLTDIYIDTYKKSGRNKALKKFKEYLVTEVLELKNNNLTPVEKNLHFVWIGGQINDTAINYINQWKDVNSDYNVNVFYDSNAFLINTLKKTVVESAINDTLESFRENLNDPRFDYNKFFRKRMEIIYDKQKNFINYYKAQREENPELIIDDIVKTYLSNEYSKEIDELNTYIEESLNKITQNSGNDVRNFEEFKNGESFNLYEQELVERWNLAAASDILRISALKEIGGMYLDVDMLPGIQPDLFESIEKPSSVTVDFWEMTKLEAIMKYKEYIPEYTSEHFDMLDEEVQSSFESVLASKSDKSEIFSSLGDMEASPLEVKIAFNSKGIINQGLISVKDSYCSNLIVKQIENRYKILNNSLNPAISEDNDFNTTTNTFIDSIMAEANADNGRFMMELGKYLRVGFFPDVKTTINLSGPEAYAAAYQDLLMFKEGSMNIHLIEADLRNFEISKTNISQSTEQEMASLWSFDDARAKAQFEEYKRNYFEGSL
T1 sequence (P16154 whole entry, looked up): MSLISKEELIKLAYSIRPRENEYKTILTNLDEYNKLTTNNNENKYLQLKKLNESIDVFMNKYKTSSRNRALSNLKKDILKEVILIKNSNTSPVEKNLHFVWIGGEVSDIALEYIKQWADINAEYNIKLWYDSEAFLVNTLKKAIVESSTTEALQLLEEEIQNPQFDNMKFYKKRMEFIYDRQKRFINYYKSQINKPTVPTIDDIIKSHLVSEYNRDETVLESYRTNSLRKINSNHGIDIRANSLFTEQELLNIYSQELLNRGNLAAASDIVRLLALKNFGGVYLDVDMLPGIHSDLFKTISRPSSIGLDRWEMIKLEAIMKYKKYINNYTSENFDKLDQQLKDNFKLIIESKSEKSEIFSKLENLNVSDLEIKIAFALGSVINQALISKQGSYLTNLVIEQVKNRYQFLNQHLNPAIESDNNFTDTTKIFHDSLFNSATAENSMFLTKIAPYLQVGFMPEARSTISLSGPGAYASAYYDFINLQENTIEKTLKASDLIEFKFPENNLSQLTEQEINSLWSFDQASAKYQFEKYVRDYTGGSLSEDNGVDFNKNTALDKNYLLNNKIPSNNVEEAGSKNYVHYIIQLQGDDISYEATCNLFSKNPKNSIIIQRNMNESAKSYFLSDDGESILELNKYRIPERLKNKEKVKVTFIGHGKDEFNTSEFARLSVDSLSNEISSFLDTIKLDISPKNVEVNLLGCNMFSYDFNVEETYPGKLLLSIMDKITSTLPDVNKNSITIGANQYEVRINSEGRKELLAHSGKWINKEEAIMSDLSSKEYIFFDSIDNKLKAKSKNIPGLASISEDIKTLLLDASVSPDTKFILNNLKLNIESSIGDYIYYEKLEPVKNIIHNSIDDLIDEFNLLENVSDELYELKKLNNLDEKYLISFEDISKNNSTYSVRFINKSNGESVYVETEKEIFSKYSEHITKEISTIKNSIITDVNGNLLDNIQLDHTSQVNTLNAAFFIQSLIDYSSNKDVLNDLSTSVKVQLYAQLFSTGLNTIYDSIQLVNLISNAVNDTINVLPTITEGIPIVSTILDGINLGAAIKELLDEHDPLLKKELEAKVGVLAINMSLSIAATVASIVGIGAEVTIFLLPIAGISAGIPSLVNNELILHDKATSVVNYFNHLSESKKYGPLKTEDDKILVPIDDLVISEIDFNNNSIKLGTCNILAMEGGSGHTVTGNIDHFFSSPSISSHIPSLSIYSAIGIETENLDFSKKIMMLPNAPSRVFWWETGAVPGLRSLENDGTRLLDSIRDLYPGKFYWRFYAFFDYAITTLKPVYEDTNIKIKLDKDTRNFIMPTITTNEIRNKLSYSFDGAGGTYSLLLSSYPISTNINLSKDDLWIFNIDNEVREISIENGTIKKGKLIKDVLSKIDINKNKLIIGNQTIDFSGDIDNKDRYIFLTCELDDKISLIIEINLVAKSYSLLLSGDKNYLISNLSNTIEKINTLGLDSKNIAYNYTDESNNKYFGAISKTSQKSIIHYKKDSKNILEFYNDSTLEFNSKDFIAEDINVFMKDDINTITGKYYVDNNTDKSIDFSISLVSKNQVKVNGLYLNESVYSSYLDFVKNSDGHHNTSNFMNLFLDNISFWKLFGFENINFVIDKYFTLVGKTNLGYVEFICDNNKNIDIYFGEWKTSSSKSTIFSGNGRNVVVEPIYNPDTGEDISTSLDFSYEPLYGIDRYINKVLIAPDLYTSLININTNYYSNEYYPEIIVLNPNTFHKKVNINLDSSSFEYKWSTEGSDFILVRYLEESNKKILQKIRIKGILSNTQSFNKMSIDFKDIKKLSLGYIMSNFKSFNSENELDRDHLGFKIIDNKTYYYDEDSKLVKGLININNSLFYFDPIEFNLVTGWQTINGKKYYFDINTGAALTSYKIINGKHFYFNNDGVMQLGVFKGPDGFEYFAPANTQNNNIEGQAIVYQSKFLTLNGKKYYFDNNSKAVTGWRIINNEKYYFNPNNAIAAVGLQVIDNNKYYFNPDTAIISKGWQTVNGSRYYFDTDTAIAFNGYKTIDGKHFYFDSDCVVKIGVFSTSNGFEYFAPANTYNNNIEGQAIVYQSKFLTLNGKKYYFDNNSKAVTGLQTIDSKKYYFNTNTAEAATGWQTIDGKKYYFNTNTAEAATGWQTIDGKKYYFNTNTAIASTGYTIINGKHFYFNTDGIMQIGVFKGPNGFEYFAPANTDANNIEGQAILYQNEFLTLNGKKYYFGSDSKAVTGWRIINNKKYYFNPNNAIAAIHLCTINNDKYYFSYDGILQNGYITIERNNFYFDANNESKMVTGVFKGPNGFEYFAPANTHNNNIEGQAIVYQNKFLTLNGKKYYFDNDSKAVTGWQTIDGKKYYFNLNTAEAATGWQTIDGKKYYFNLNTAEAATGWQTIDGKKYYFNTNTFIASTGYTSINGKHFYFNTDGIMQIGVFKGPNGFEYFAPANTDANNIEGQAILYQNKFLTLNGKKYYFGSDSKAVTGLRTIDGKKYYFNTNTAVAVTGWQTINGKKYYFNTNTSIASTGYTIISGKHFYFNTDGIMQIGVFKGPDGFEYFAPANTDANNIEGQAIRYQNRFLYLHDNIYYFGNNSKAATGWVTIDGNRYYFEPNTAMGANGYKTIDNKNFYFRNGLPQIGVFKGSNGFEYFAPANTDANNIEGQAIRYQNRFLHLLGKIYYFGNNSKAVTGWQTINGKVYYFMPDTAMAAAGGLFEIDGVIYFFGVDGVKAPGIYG

| SMILES | inhibition of Tcds (in words) (TcdB) | apoptosis (Annexin V signal) [1] | protection from cell rounding [2] | Ki (TcdA [3]) [nM] | un-glucosylated Rac1 (Mab102) compared to total Rac1 [4] | Kd (TcdB-GTD) [nM] | N (TcdB-GTD) | ΔG (TcdB-GTD) [kcal/mol] | ΔH (TcdB-GTD) [kcal/mol] | protection from cell rounding [5] | Ki (TcdB; TcdB-UDP, read-out: Ki) [nM] | un-glucosylated Rac1 (Mab102) compared to total Rac1 [6] | ITC binding (TcdB-GTD) | −TΔS (TcdB-GTD) [kcal/mol] | Ki (TcdB; in the presence of 2×Ki for UDP, read-out: kinetic Ki (apparent Ki)) [nM] | increase of affinity (TcdB; when UDP is present at 2×Ki) [fold] | mechanism of inhibition (TcdB; with respect to UDP-glucose) | Kd (TcdA [7]) [nM] |
| --- | --- | --- | --- | --- | --- | --- | --- | --- | --- | --- | --- | --- | --- | --- | --- | --- | --- | --- |
| OC[C@H]1NC[C@H](O)[C@@H](O)[C@@H]1O [deoxynorjirimycin, reference compound] | poor inhibition |  |  |  |  |  |  |  |  |  |  |  |  |  |  |  |  |  |
| OC[C@H]1CNC(O)[C@@H](O)[C@@H]1O (stereo partly shown) [Noeuromycin, noeuromycin] |  | prevented apoptosis | prevent rounding | 200 | dose-dependent maintenance of un-glucosylated Rac1 | 180 ± 69.7 | 1.2±0.1 | -9.3 ± 0.3 | -5.2 ± 0.1 | prevent rounding | 4000 | dose-dependent maintenance of un-glucosylated Rac1 |  |  |  |  |  |  |
| O=C1O[C@H](CO)[C@@H](O)[C@H](O)[C@H]1O [Gluconolactone, reference compound] | poor inhibitor |  |  |  |  |  |  |  |  |  |  |  |  |  |  |  |  |  |
| OC[C@H]1CNC[C@@H](O)[C@@H]1O [Isofagomine, (3R,4R,5R)-5-(hydroxymethyl)-3,4-piperidinediol] |  | prevented apoptosis | sufficient to protect CHO-K1 cells from rounding; also recorded: prevent rounding |  | dose-dependent maintenance of un-glucosylated Rac1 | 66.9 ± 19.7 | 0.5±0.01 | -9.8 ± 0.3 | -10.3 ± 0.1 | prevent rounding |  | dose-dependent maintenance of un-glucosylated Rac1 | no binding | 0.5 ± 0.2 | 290 | 3 | uncompetitive | 7 |
